# Test results reported in US5075336A, “Alkaline earth metal salts of oxa polyacid compounds” (Adir et Compagnie, priority 1990, dated 1991).
# Like-named read-outs stand apart in the source and are kept apart here.
# How the values were obtained:
# [1] = system: forearms of rat foetuses (PTH-stimulated osseous resorption); test: Osseous resorption in tissue culture: 45Ca salted out from PTH-stimulated foetal forearm bones; assay type: cell-based, rats
# Description: (§1) The activity on osseous formation and the anti-resorbing activity of compounds potentially active as medicaments may be detected and measured in vitro in tissue culture.
# 18-day pregnant rats are injected with 150 μcuries of ^45 Ca subcutaneously.
# On the 19th day the rats are sacrificed and the foetuses are removed, immersed in a bath of alcohol at 70° are then two baths of PBS and killed by cutting off the head. The two forearms are dissected, the skin, the tendons and the muscles are removed and the cartilaginous extremities are cut off. The forearms are cultured in 24-well culture boxes in the presence of 1.5 ml of MEM for 24 hours for equilibration. At the end of said 24 hours, the medium is replaced by 1.5 ml of BGJB supplemented with 10% of foetal calf serum. The resorption is stimulated in all of the samples by […] of PTH. The bones are cultured for two successive periods of 72 hours each and the culture media are removed to determine the amount of ^45 Ca salted out at the end of each of these two periods. At the end of the second period (7 days after the start of culture), the bones are immersed for 24 hours in 1.5 ml of 10% formic acid and the ^45 Ca salted out from the bones is also determined in a scintillation counter.
# The results are expressed for each of the two culture periods by the treated/control ratio calculated in the following way: [formula]
# The compounds were tested on this model at concentrations of 5×10^-3 and 5×10^-4 M.
# [2] = Bioavailability (Sr2+ by atomic absorption spectrometry); settings: rat, in vivo, po, 50 mg/kg; male wistar rats, 50 mg Sr2+ per kg, gelatin mini capsules; compared with strontium chloride; read-out: Absolute bioavailability
# Description: the determination was carried out on groups of 5 male wistar rats
# administration is in a dose of 50 mg of Sr^2+ per kg in the form of gelatin mini capsules,
# the determination was carried out by atomic absorption spectrometry using flame ionisation for the concentrations higher than 1 μg/ml and furnace ionisation for the concentrations lower than 1 μg/ml
# [3] = system: Demi-calvarias of newly born mice; test: Osseous formation in tissue culture: incorporation of tritiated proline (T/C ratio); assay type: cell-based; settings: 48 h, n = 7
# Description: as §1
# Demi-calvarias of newly born mice (1-2 days) are cultured on gratings in BGJ medium containing tritiated proline. The explants are cultured for 48 h in the presence of the tested compound at 37° C. and at the end of the culture the bones are washed in trichloroacetic acid containing non-radioactive proline in order to remove the ^3 H-proline which has not been incorporated.
# After washing and dissolving in sodium hydroxide solution, the incorporation of the labler in the bone and the amount of total proteins are counted. The effect of the product on the incorporation of proline in the bone in culture is thus evaluated.
# Each treated demi-calvaria is compared with the untreated demi-calvaria which serves as control and the T/C ratio is calculated. [formula]
# A stimulation of the osseous formation is reflected by a higher incorporation of tritiated proline in the treated demi-calvaria than in the control (T/C>1). An inhibition of the osseous formation is shown by a T/C ratio of <1.
# The compounds were tested at concentrations of 10^-4, 10^-6, 10^-8, 10^-10 and 10^-12 M.
# 6 to 9 experiments were carried out per point.
# [4] = PTH alone (reference of the ratio)
molecule,measurement,setting,value
"CCOC(OC(CO)C(=O)O)C(=O)O (stereo not drawn) [Example 1, Strontium 2-ethoxy-4-hydroxymethyl-3-oxa pentanedioate]","Level of osseous resorption (%), D1-D4","[1]; 5 10^-3 (M), PTH-stimulated, 9 determinations per point, (c) different from PTH at p < 0.05",6.4 ± 0.9%
same,"Level of osseous resorption (%), D1-D4","[1]; 5 10^-4 (M), PTH-stimulated, 9 determinations per point",14.5 ± 4.1%
same,activity at 5000 µM,"[1]; Rattus norvegicus, 5 10^-3 (M), PTH-stimulated, read-out: Osseous resorption T/C, D1-D4",45%
same,activity at 5000 µM,"[1]; Rattus norvegicus, 5 10^-3 (M), PTH-stimulated, read-out: Osseous resorption T/C, D4-D7",6%
same,activity at 500 µM,"[1]; Rattus norvegicus, 5 10^-4 (M), PTH-stimulated, read-out: Osseous resorption T/C, D1-D4",101%
same,activity at 500 µM,"[1]; Rattus norvegicus, 5 10^-4 (M), PTH-stimulated, read-out: Osseous resorption T/C, D4-D7",84%
same,minimal effective concentration,"[1]; Rattus norvegicus, in vitro, PTH-stimulated, read-out: Concentration from which anti-resorbing activity is statistically significant",500 µM
same,bioavailability,[2],60.5%
same,"Osseous formation, T/C ratio, maximum value",[3]; 10^-4 M,1.8034
same,"Osseous formation, T/C ratio, minimum value",[3]; 10^-4 M,1.2095
same,"Osseous formation, T/C ratio, maximum value",[3]; 10^-6 M,1.4652
same,"Osseous formation, T/C ratio, minimum value",[3]; 10^-6 M,0.8433
same,"Osseous formation, T/C ratio, maximum value",[3]; 10^-8 M,1.2092
same,"Osseous formation, T/C ratio, minimum value",[3]; 10^-8 M,0.8511
same,"Osseous formation, T/C ratio, maximum value",[3]; 10^-10 M,1.0974
same,"Osseous formation, T/C ratio, minimum value",[3]; 10^-10 M,0.8467
same,"Osseous formation, T/C ratio, maximum value",[3]; 10^-12 M,1.2822
same,"Osseous formation, T/C ratio, minimum value",[3]; 10^-12 M,0.8988
same,activity at 100 µM,"[3]; Mus musculus, 10^-4 M, 37° C., marked **",150%
same,activity at 1 µM,"[3]; Mus musculus, 10^-6 M, 37° C.",107%
same,activity at 0.01 µM,"[3]; Mus musculus, 10^-8 M, 37° C.",103%
same,activity at 0.0001 µM,"[3]; Mus musculus, 10^-10 M, 37° C.",97.2%
same,activity at 1 pM,"[3]; Mus musculus, 10^-12 M, 37° C.",106%
"PTH: PTH, used to stimulate the resorption in all of the samples (protein, UniProt P01270 32-115, looked up, Parathyroid hormone, PTH, used to stimulate the resorption in all of the samples) Parathyroid hormone: SVSEIQLMHNLGKHLNSMERVEWLRKKLQDVHNFVALGAPLAPRDAGSQRPRKKEDNVLVESHEKSLGEADKADVNVLTKAKSQ","Osseous resorption T/C, D1-D4",[1]; [4],1.00
same,"Osseous resorption T/C, D4-D7",[1]; [4],1.00
same,"Level of osseous resorption (%), D1-D4","[1]; PTH alone, 9 determinations per point, (a) different from control at p < 0.05",14.3 ± 3.4%
same,"Level of osseous resorption (%), D1-D7","[1]; PTH alone, 9 determinations per point, (b) different from control at p < 0.0001",37.0 ± 7.6%
